From ChEMBL document CHEMBL2046395, “Discovery of nitroheterocycles active against African trypanosomes. In vitro screening and preliminary SAR studies” (Bioorg Med Chem Lett, 2012)
pIC50: −log10 of the molar value.

Key:
L6 = experiment: Cytotoxicity against rat L6 cells; format: cell-based
[1] = tested on: Trypanosoma brucei rhodesiense; experiment: Antitrypanosomal activity against Trypanosoma brucei rhodesiense STIB900 by Alamar blue growth inhibition assay; format: functional, organism-based
[2] = Selectivity index, ratio of IC50 for rat L6 cells to IC50 for Trypanosoma brucei rhodesiense STIB900; format: toxicity, cell-based; details: read-out: Ratio IC50

Row | pIC50 [1] | Structure (SMILES) | pIC50 (L6) | selectivity ratio [2]
1 | 4.06 | O=c1c2cc([N+](=O)[O-])ccc2n2n1Cc1ccccc1CC2 | < 3.47 | > 4
2 | 4.31 | O=c1c2cc([N+](=O)[O-])ccc2n(Cc2ccccc2)n1Cc1ccccc1 | 4.43 | 0.8
3 | 3.60 | O=c1c2cc([N+](=O)[O-])ccc2[nH]n1Cc1ccccn1 | 3.54 | 1.1
4 | 4.18 | O=c1c2cc([N+](=O)[O-])ccc2n2n1Cc1ccccc1C2 | 3.65 | 3.3
5 | 4.13 | O=[N+]([O-])c1ccc2[nH]nc(OCc3ccccc3Cl)c2c1 | 4.52 | 0.4
6 | 3.72 | COc1nn(Cc2ccccc2F)c2ccc([N+](=O)[O-])cc12 | < 3.48 | > 1.7
7 | 3.77 | O=c1[nH]n(Cc2ccccc2F)c2ccc([N+](=O)[O-])cc12 | 3.68 | 1.3
8 | 3.79 | O=c1c2cc([N+](=O)[O-])ccc2[nH]n1Cc1ccccc1 | 3.63 | 1.4
9 | 3.79 | Cn1c(=O)c2cc([N+](=O)[O-])ccc2n1Cc1ccccc1 | 3.78 | 1
10 | 5.09 | Cn1c2ccc([N+](=O)[O-])cc2c(=O)n1Cc1ccccc1 | 4.36 | 5.3
11 | 4.70 | CCCn1c2ccc([N+](=O)[O-])cc2c(=O)n1Cc1ccccc1 | 4.11 | 3.9
12 | 4.01 | O=C(NN1Cc2ccccc2C1)c1cc([N+](=O)[O-])ccc1Cl | 4.70 | 0.2
13 | 3.75 | O=C(Cc1cc([N+](=O)[O-])ccc1F)NN1Cc2ccccc2C1 | 3.77 | 0.9
14 | 5.15 | O=C(NCc1cc([N+](=O)[O-])ccc1N1CCc2ccccc2C1)NCc1cc([N+](=O)[O-])ccc1N1CCc2ccccc2C1 | < 3.77 | > 23.6
15 | 3.92 | COc1nn(Cc2ccccc2Cn2nc(OC)c3cc([N+](=O)[O-])ccc32)c2ccc([N+](=O)[O-])cc12 | < 3.69 | > 1.7
16 | < 3.38 | O=C(NN1Cc2ccccc2C1)c1ccccc1 | 4.16 | 0.2
17 | 3.78 | O=C(NN1Cc2ccccc2C1)c1ccccc1F | 3.62 | 1.5
18 | 4.40 | O=C(NN1Cc2ccccc2C1)c1cc([N+](=O)[O-])ccc1F | < 3.48 | > 8.3
19 | < 3.44 | O=C(NN1Cc2ccccc2C1)c1cccnc1Cl | < 3.44 | –
20 | 3.49 | O=C(Cc1cc([N+](=O)[O-])ccc1F)NN1CCCCC1 | < 3.45 | > 1.1
21 | < 3.39 | CN(C)NC(=O)c1cc([N+](=O)[O-])ccc1Cl | < 3.39 | –
22 | 3.67 | O=C(NN1CCCCC1)c1cc([N+](=O)[O-])ccc1Cl | < 3.45 | > 1.7
23 | 4.64 | O=C(NN1CCc2ccccc2C1)c1cc([N+](=O)[O-])ccc1F | < 3.50 | > 13.7
24 | 4.26 | O=C(NN1CCc2ccccc2C1)c1cc([N+](=O)[O-])ccc1Cl | 4.66 | 0.4
25 | 4.09 | O=C(NN1Cc2ccccc2CN1)c1cc([N+](=O)[O-])ccc1Cl | 3.75 | 2.2
26 | 4.25 | O=C(NN(Cc1ccccc1)Cc1ccccc1)c1ccccc1Cl | 4.29 | 0.9
27 | 4.42 | O=C(NN(Cc1ccccc1)Cc1ccccc1)c1cc([N+](=O)[O-])ccc1Cl | 4.38 | 1.1
28 | 4.77 | O=C(NN(Cc1ccccc1)Cc1ccccc1)c1cc([N+](=O)[O-])ccc1F | 4.71 | 1.1

Row | pIC50 [1] | Structure (SMILES) | pIC50 (L6) | selectivity ratio [2]
29 | 5.13 | O=C(NN(c1ccccc1)c1ccccc1)c1cc([N+](=O)[O-])ccc1Cl | 4.88 | 1.8
30 | 5.25 | O=C(NN(c1ccccc1)c1ccccc1)c1cc([N+](=O)[O-])ccc1F | 5.49 | 0.6
31 | 4.85 | CCOc1ccc([N+](=O)[O-])cc1C(=O)NN(c1ccccc1)c1ccccc1 | 3.73 | 13
32 | < 3.31 | [O-]C1=N[N+]2(CCCCC2)c2ccccc21 | < 3.31 | –
33 | 3.72 | O=[N+]([O-])c1ccc2c(c1)C([O-])=N[N+]21CCCCCC1 | < 3.42 | > 2
34 | 3.51 | Cn1[nH]c(=O)c2cc([N+](=O)[O-])ccc21 | < 3.29 | > 1.7
35 | 3.96 | O=c1[nH]n(-c2ccccc2)c2ccc([N+](=O)[O-])cc12 | 3.80 | 1.4
36 | 4.97 | CN(C)CCOc1nn(Cc2ccccc2)c2ccc([N+](=O)[O-])cc12 | 4.24 | 5.3
37 | 5.28 | CN(C)CCCOc1nn(Cc2ccccc2F)c2ccc([N+](=O)[O-])cc12 | 4.49 | 6.1
38 | 3.70 | O=[N+]([O-])c1ccc2c(c1)CC([O-])=N[N+]21CCCCC1 | 3.49 | 1.6
39 | 3.62 | C[n+]1cccc2c(=O)n3n(c21)Cc1ccccc1C3 | < 3.58 | > 1.1
40 | 3.67 | O=C1C[N+]2(CCCCC2)c2ccc([N+](=O)[O-])cc21 | 4.07 | 0.4
41 | 4.31 | CCCCn1c2ccc([N+](=O)[O-])cc2c(=O)n1Cc1ccccc1 | 4.33 | 1
42 | 3.86 | Cn1c2ccc([N+](=O)[O-])cc2c(=O)n1-c1ccccc1 | 4.18 | 0.5
43 | 4.67 | O=C1CN(CCCCCN2CCCCC2)c2ccc([N+](=O)[O-])cc2N1 | 4.01 | 4.6
44 | 4.84 | CN1C(=O)CN(CCCCCN2CCCCC2)c2ccc([N+](=O)[O-])cc21 | 4.28 | 3.6
45 | 4.20 | CN1C(=O)C2Cc3ccccc3CCN2c2ccc([N+](=O)[O-])cc21 (stereo not drawn) | 4.82 | 0.2
46 | 3.72 | CN1C(=O)C2=Cc3ccccc3CCN2c2ccc([N+](=O)[O-])cc21 | < 3.51 | > 1.6
47 | 3.81 | CN1C(=O)C2CCCCN2c2ccc([N+](=O)[O-])cc21 (stereo not drawn) | 3.99 | 0.7
48 | 3.92 | CON1C(=O)C2CCCCN2c2ccc([N+](=O)[O-])cc21 (stereo not drawn) | 4.17 | 0.6
49 | 4.21 | CN1C(=O)C2Cc3ccccc3CN2c2ccc([N+](=O)[O-])cc21 (stereo not drawn) | 4.73 | 0.3
50 | 4.09 | O=[N+]([O-])c1ccc2c(c1)c(OCc1ccccc1)nn2Cc1ccccc1-c1ccccc1Cn1nc(OCc2ccccc2)c2cc([N+](=O)[O-])ccc21 | < 3.86 | > 1.7
51 | 4.24 | COc1nn(Cc2cccc(Cn3nc(OC)c4cc([N+](=O)[O-])ccc43)n2)c2ccc([N+](=O)[O-])cc12 | 3.82 | 2.6
52 | 4.00 | COc1nn(Cc2ccccc2Cn2nc(OC)c3ccccc32)c2ccccc12 | 4.35 | 0.4
53 | 5.77 | CSc1ccc(OCc2ncc([N+](=O)[O-])n2C)cc1 [FEXINIDAZOLE] | – | > 322
54 | < 3.50 | O=C(NN(Cc1ccccc1)Cc1ccccc1)c1ccccc1 [N',N'-DIBENZYLBENZOHYDRAZIDE] | < 3.50 | –
55 | – | COc1cc([C@@H]2c3cc4c(cc3[C@H](O)[C@H]3COC(=O)[C@H]23)OCO4)cc(OC)c1OC [PODOFILOX] | 7.72 | –
